target: T1, human neutrophil elastase (HNE) (Homo sapiens, UniProt P08246); assay: HNE enzyme assay (human neutrophil elastase enzyme activity assay); type: biochemical; details: human leukocyte elastase 0.00072 U/mL; substrate MeOSuc-Ala-Ala-Pro-Val-AMC 100 μM; 25° C. for 30 minutes; at least two separate experiments; read-out: HNE inhibition (HNE enzyme inhibition, IC50 values)
T1 construct: purchased Sigma E8140
T1 sequence (P08246 30-247 limits assumed): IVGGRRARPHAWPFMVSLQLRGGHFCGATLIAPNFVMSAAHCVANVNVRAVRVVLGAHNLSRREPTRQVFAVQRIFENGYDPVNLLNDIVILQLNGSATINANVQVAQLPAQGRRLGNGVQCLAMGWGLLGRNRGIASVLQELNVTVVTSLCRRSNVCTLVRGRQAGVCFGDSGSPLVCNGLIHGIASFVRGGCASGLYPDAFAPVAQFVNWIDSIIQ
Procedure: Compounds of the present invention were tested for potency in a human neutrophil elastase (HNE) enzyme activity assay.
Assays were performed in 96-well plates in a total assay volume of 100 μL. The final concentration of elastase enzyme (human leukocyte elastase, Sigma E8140) was 0.00072 U/mL. The peptide substrate (MeOSuc-Ala-Ala-Pro-Val-AMC, Calbiochem #324740) was used at a final concentration of 100 μM. The final concentration of DMSO was 1% in the assay buffer (0.05M Tris.HCl, 0.1M NaCl, 0.1M CaCl2, 0.0005% brij-35, pH 7.5). The enzymatic reaction was started by addition of the enzyme and incubated at 25° C. for 30 minutes. After incubation, the reaction was stopped by addition of soybean trypsin inhibitor (Sigma T9003) at a final concentration of 50 μg/well. Fluorescence was measured using a Molecular Devices fluorescence plate reader using 380 nm excitation and 460 nm emission wavelengths.
A dose response to each compound was performed and the effect of compound in each experiment was expressed as a percentage inhibition of the control enzyme fluorescence. Dose response curves were plotted and compound potency (IC50) was determined. Compounds were tested in at least two separate experiments.

| IC50 [nM] | SMILES |
| --- | --- |
| < 1 | CCOC(=O)c1c(-c2ccnn2-c2ccc(C#N)cc2)n(CC)n(-c2cccc(C(F)(F)F)c2)c1=O [Example 71, 2′-(4-Cyano-phenyl)-2-ethyl-5-oxo-1-(3-trifluoromethyl-phenyl)-2,5-dihydro-1H,2′H-[3,3′]bipyrazolyl-4-carboxylic acid ethyl ester] |
| < 1 | Cn1c(-c2ccnn2-c2ccc(C#N)cc2)c(C(=O)N[C@H]2CC[C@H](C[n+]3ccccc3)CC2)c(=O)n1-c1cccc(C(F)(F)F)c1 [Example 69, 1-(4-{[2′-(4-Cyano-phenyl)-2-methyl-5-oxo-1-(3-trifluoromethyl-phenyl)-2,5-dihydro-1H,2′H-[3,3′]bipyrazolyl-4-carbonyl]-amino}-cyclohexylmethyl)-pyridinium bromide] |
| < 1 | Cn1c(-c2ccnn2-c2ccc(C#N)cc2)c(C(=O)NC2CC[N+]3(CCCC3)CC2)c(=O)n1-c1cccc(C(F)(F)F)c1 [Example 22, 8-{[2′-(4-Cyano-phenyl)-2-methyl-5-oxo-1-(3-trifluoromethyl-phenyl)-2,5-dihydro-1H,2′H-[3,3′]bipyrazolyl-4-carbonyl]-amino}-5-azonia-spiro[4.5]decane bromide] |
| 1 to 10 | C[C@H](NC(=O)c1c(-c2ccnn2-c2ccc(C#N)cc2)n(C)n(-c2cccc(C(F)(F)F)c2)c1=O)c1ncc(CC[N+](C)(C)C)o1 [Example 52, {2-[2-((S)-1-{[2′-(4-Cyano-phenyl)-2-methyl-5-oxo-1-(3-trifluoromethyl-phenyl)-2,5-dihydro-1H,2′H-[3,3′]bipyrazolyl-4-carbonyl]-amino}-ethyl)-oxazol-5-yl]-ethyl}-trimethyl-ammonium benzene sulphonate] |
| < 1 | Cc1cc(C[N+]2(C)CCN(C(=O)[C@H](C)NC(=O)c3c(-c4ccnn4-c4ccc(C#N)cc4)n(C)n(-c4cccc(C(F)(F)F)c4)c3=O)CC2)no1 [Example 49, 4-((S)-2-{[2′-(4-Cyano-phenyl)-2-methyl-5-oxo-1-(3-trifluoromethyl-phenyl)-2,5-dihydro-1H,2′H-[3,3′]bipyrazolyl-4-carbonyl]-amino}-propionyl)-1-methyl-1-(5-methyl-isoxazol-3-ylmethyl)-piperazin-1-ium chloride] |
| < 1 | Cn1c(-c2ccnn2-c2ccc(C#N)cc2)c(C(=O)N[C@H]2C[C@H](C(=O)NC3CC[N+](C)(C)CC3)C2)c(=O)n1-c1cccc(C(F)(F)F)c1 [Example 55, 4-[(Trans-3-{[2′-(4-cyano-phenyl)-2-methyl-5-oxo-1-(3-trifluoromethyl-phenyl)-2,5-dihydro-1H,2′H-[3,3′]bipyrazolyl-4-carbonyl]-amino}-cyclobutanecarbonyl)-amino]-1,1-dimethyl-piperidinium benzene sulphonate] |
| < 1 | Cn1c(-c2ccnn2-c2ccc(C#N)cc2)c(C(=O)N[C@H]2CC[C@H](C(=O)OC3CC[N+](C)(C)CC3)CC2)c(=O)n1-c1cccc(C(F)(F)F)c1 [Example 59, 4-(Trans-4-{[2′-(4-cyano-phenyl)-2-methyl-5-oxo-1-(3-trifluoromethyl-phenyl)-2,5-dihydro-1H,2′H-[3,3′]bipyrazolyl-4-carbonyl]-amino}-cyclohexanecarbonyloxy)-1,1-dimethyl-piperidinium benzene sulphonate] |
| < 1 | Cn1c(-c2ccnn2-c2ccc(C#N)cc2)c(C(=O)NC2CCN(C(=O)C[N+](C)(C)Cc3ccccc3)CC2)c(=O)n1-c1cccc(C(F)(F)F)c1 [Example 43, Benzyl-[2-(4-{[2′-(4-cyano-phenyl)-2-methyl-5-oxo-1-(3-trifluoromethyl-phenyl)-2,5-dihydro-1H,2′H-[3,3′]bipyrazolyl-4-carbonyl]-amino}-piperidin-1-yl)-2-oxo-ethyl]-dimethyl-ammonium bromide] |
